Assay results as given in PubChem BioAssay AID256 (DTP/NCI, 2004).
Where “and” joins values, the source holds several entries; their conditions need not be identical. Equal entries are not always repeated. Inconclusive results and toxic doses are left out. Rule for the calls: active = survival T/C of 150% or more; inactive = T/C below 125% in these data.

System: CD2F1 mice, L1210 leukemia ip, survival T/C
Assay: NCI In Vivo Anticancer Drug Screen. Data for tumor model L1210 Leukemia (intraperitoneal) in CD2F1 (CDF1) mice
Details: higher = longer survival
How it was run: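 Compound-dosed mice with transplantable tumor versus matched vehicle controls; endpoint ratio T/C reported.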

[1] = endpoint: mean survival time, dose: 100.0 mg/kg/injection, schedule: Q01DX009 (ip), vehicle: saline with Tween-80
[2] = endpoint: mean survival time, dose: 100.0 mg/kg/injection, schedule: Q04DX003 (ip), vehicle: saline with Tween-80
[3] = endpoint: mean survival time, dose: 200.0 mg/kg/injection, schedule: Q01DX009 (ip), vehicle: saline with Tween-80
[4] = endpoint: mean survival time, dose: 200.0 mg/kg/injection, schedule: Q04DX003 (ip), vehicle: saline with Tween-80
[5] = endpoint: mean survival time, dose: 400.0 mg/kg/injection, schedule: Q04DX003 (ip), vehicle: saline with Tween-80
[6] = endpoint: mean survival time, dose: 100.0 mg/kg/injection, schedule: Q04DX002 (ip), vehicle: saline with Tween-80
[7] = endpoint: mean survival time, dose: 100.0 mg/kg/injection, schedule: Q04DX003 (ip), vehicle: Klucel (hydroxypropylcellulose) (HPC)
[8] = endpoint: mean survival time, dose: 25.0 mg/kg/injection, schedule: Q01DX009 (ip), vehicle: saline
[9] = endpoint: mean survival time, dose: 50.0 mg/kg/injection, schedule: Q04DX003 (ip), vehicle: saline
[10] = endpoint: mean survival time, dose: 100.0 mg/kg/injection, schedule: Q04DX003 (ip), vehicle: saline
[11] = endpoint: mean survival time, dose: 200.0 mg/kg/injection, schedule: Q04DX002 (ip), vehicle: saline with Tween-80
[12] = endpoint: mean survival time, dose: 100.0 mg/kg/injection, schedule: Q01DX001 (ip), vehicle: saline
[13] = endpoint: mean survival time, dose: 400.0 mg/kg/injection, schedule: Q01DX001 (ip), vehicle: saline
[14] = endpoint: mean survival time, dose: 50.0 mg/kg/injection, schedule: Q01DX009 (ip), vehicle: saline with Tween-80
[15] = endpoint: mean survival time, dose: 200.0 mg/kg/injection, schedule: Q04DX003 (ip), vehicle: saline
[16] = endpoint: mean survival time, dose: 50.0 mg/kg/injection, schedule: Q04DX002 (ip), vehicle: saline with Tween-80

Measured: T/C

O=C1CC2OCC=C3CN4CCC5(C(=O)O)C(N1)C2C3CC45 (configuration not stated)
inactive: endpoint: mean survival time, dose: 75.0 mg/kg/injection, schedule: Q01DX001 (ip), vehicle: saline 106 % of control | endpoint: mean survival time, dose: 150.0 mg/kg/injection, schedule: Q01DX001 (ip), vehicle: saline 100 % of control | endpoint: mean survival time, dose: 300.0 mg/kg/injection, schedule: Q01DX001 (ip), vehicle: saline 100 % of control

CN1CN(C)C(=O)S(=O)(=O)C1
inactive: [1] 105 % of control | [2] 92 % of control | [3] 103 % of control | [4] 93 % of control | endpoint: mean survival time, dose: 400.0 mg/kg/injection, schedule: Q01DX009 (ip), vehicle: saline with Tween-80 107 % of control | [5] 98 % of control

Nc1cc(OCc2ccccc2)c(N)c(N)n1
inactive: endpoint: mean survival time, dose: 1.56 mg/kg/injection, schedule: Q01DX005 (ip), vehicle: water 98 % of control | endpoint: mean survival time, dose: 3.13 mg/kg/injection, schedule: Q01DX005 (ip), vehicle: water 97 % of control | endpoint: mean survival time, dose: 6.25 mg/kg/injection, schedule: Q01DX005 (ip), vehicle: water 98 % of control | endpoint: mean survival time, dose: 12.5 mg/kg/injection, schedule: Q01DX005 (ip), vehicle: water 98 % of control | endpoint: mean survival time, dose: 25.0 mg/kg/injection, schedule: Q01DX005 (ip), vehicle: water 97 % of control

N#CCCOS(=O)(=O)c1cccc([N+](=O)[O-])c1
inactive: [2] 98 % of control | [4] 101 % of control | [5] 93 % of control

C=CC(=O)c1ccccc1
inactive: [6] 111 % of control

CC(=O)NCC1(c2ccccc2)CCN(CCCC(=O)c2ccc(F)cc2)CC1
inactive: endpoint: mean survival time, dose: 25.0 mg/kg/injection, schedule: Q04DX003 (ip), vehicle: Klucel (hydroxypropylcellulose) (HPC) 95 % of control | endpoint: mean survival time, dose: 50.0 mg/kg/injection, schedule: Q04DX003 (ip), vehicle: Klucel (hydroxypropylcellulose) (HPC) 100 % of control | [7] 95 % of control

CC(C)NC(=S)S
inactive: [8] 100 % of control | endpoint: mean survival time, dose: 25.0 mg/kg/injection, schedule: Q04DX003 (ip), vehicle: saline 100 % of control | endpoint: mean survival time, dose: 50.0 mg/kg/injection, schedule: Q01DX009 (ip), vehicle: saline 94 % of control | [9] 105 % of control | endpoint: mean survival time, dose: 100.0 mg/kg/injection, schedule: Q01DX009 (ip), vehicle: saline 109 % of control | [10] 103 % of control

CCCC(=O)C(CC)C(O)(C(F)(F)F)C(F)(F)F (configuration not stated)
inactive: [7] 95 % of control | endpoint: mean survival time, dose: 200.0 mg/kg/injection, schedule: Q04DX003 (ip), vehicle: Klucel (hydroxypropylcellulose) (HPC) 108 % of control | endpoint: mean survival time, dose: 400.0 mg/kg/injection, schedule: Q04DX003 (ip), vehicle: Klucel (hydroxypropylcellulose) (HPC) 86 % of control

CCCCCCCCCCCCCCOc1ccc(Cl)cc1
inactive: [6] 87 % of control | [11] 87 % of control

CC(=O)O.[Th]
inactive: [12] 92 % of control | [13] 92 % of control

NNC(=O)c1ccc([N+](=O)[O-])o1
inactive: endpoint: mean survival time, dose: 37.5 mg/kg/injection, schedule: Q01DX009 (ip), vehicle: saline with Tween-80 97 % of control | [2] 110 % of control

CCOC(=O)/C(C#N)=C1\CCCc2ccccc21
inactive: endpoint: mean survival time, dose: 100.0 mg/kg/injection, schedule: Q04DX003 (ip), vehicle: acetone 94 % of control | endpoint: mean survival time, dose: 200.0 mg/kg/injection, schedule: Q04DX003 (ip), vehicle: acetone 91 % of control

Nc1nc2c(ncn2C2CC3[O][Sn]([c]4ccccc4)([c]4ccccc4)[O]CC3O2)c(=O)[nH]1 (configuration not stated)
inactive: endpoint: mean survival time, dose: 6.25 mg/kg/injection, schedule: Q01DX005 (ip), vehicle: distilled water + Tween-80 104 % of control | endpoint: mean survival time, dose: 12.5 mg/kg/injection, schedule: Q01DX005 (ip), vehicle: distilled water + Tween-80 93 % of control | endpoint: mean survival time, dose: 25.0 mg/kg/injection, schedule: Q01DX005 (ip), vehicle: distilled water + Tween-80 93 % of control | endpoint: mean survival time, dose: 50.0 mg/kg/injection, schedule: Q01DX005 (ip), vehicle: distilled water + Tween-80 90 % of control | endpoint: mean survival time, dose: 100.0 mg/kg/injection, schedule: Q01DX005 (ip), vehicle: distilled water + Tween-80 106 % of control

O=S1(=O)CC(Br)C(Br)C1 (configuration not stated)
inactive: [14] 88 % of control | [1] 100 % of control | [2] 106 % of control | [3] 110 % of control | [4] 107 % of control | [5] 100 % of control

CCCCCCCCCCCCCCC/C([O-])=N/[N+](C)(C)CC(C)O (configuration not stated)
inactive: endpoint: mean survival time, dose: 25.0 mg/kg/injection, schedule: Q01DX001 (ip), vehicle: saline 95 % of control and 100 % of control | endpoint: mean survival time, dose: 50.0 mg/kg/injection, schedule: Q01DX001 (ip), vehicle: saline 100 % of control | [14] 89 % of control | [12] 89 % of control and 97 % of control | [1] 91 % of control | endpoint: mean survival time, dose: 200.0 mg/kg/injection, schedule: Q01DX001 (ip), vehicle: saline 97 % of control | [13] 100 % of control

N=C(N)c1ccc(NC(=O)c2ccc(C(=O)Nc3ccc(C(=N)N)cc3)c(N)c2)cc1
inactive: endpoint: median survival time, dose: 12.5 mg/kg/injection, schedule: Q01DX009 (ip), vehicle: saline with Tween-80 101 % of control and 110 % of control | endpoint: median survival time, dose: 25.0 mg/kg/injection, schedule: Q01DX009 (ip), vehicle: saline with Tween-80 102 % of control and 112 % of control | endpoint: median survival time, dose: 50.0 mg/kg/injection, schedule: Q01DX009 (ip), vehicle: saline with Tween-80 119 % of control and 103 % of control | endpoint: median survival time, dose: 100.0 mg/kg/injection, schedule: Q01DX009 (ip), vehicle: saline with Tween-80 121 % of control and 96 % of control and 112 % of control | endpoint: median survival time, dose: 200.0 mg/kg/injection, schedule: Q01DX009 (ip), vehicle: saline with Tween-80 107 % of control

NC(=O)c1ncc(-c2ccccc2)[nH]c1=O
inactive: [10] 93 % of control | [15] 98 % of control | endpoint: mean survival time, dose: 400.0 mg/kg/injection, schedule: Q04DX003 (ip), vehicle: saline 102 % of control

N#CC(CC(=O)c1ccc(-c2ccccc2)cc1)c1ccccc1 (configuration not stated)
inactive: [2] 91 % of control | [4] 91 % of control | [5] 95 % of control

C=C1C(=O)OC2CC(C)C3C=CC(=O)C3CC12 (configuration not stated)
inactive: endpoint: mean survival time, dose: 0.5 mg/kg/injection, schedule: Q01DX009 (ip), vehicle: Klucel (hydroxypropylcellulose) (HPC) 106 % of control | endpoint: mean survival time, dose: 1.0 mg/kg/injection, schedule: Q01DX009 (ip), vehicle: Klucel (hydroxypropylcellulose) (HPC) 102 % of control | endpoint: mean survival time, dose: 18.75 mg/kg/injection, schedule: Q01DX009 (ip), vehicle: Klucel (hydroxypropylcellulose) (HPC) 105 % of control

COc1cc(C(=O)C(=O)c2cc(OC)c(OC)c(OC)c2)cc(OC)c1OC
inactive: endpoint: mean survival time, dose: 100.0 mg/kg/injection, schedule: Q01DX009 (ip), vehicle: Klucel (hydroxypropylcellulose) (HPC) 101 % of control | endpoint: mean survival time, dose: 200.0 mg/kg/injection, schedule: Q01DX009 (ip), vehicle: Klucel (hydroxypropylcellulose) (HPC) 106 % of control | endpoint: mean survival time, dose: 400.0 mg/kg/injection, schedule: Q01DX009 (ip), vehicle: Klucel (hydroxypropylcellulose) (HPC) 113 % of control

COc1ccc(C#N)c([N+](=O)[O-])c1
inactive: [2] 95 % of control | [4] 114 % of control

CCc1cc[c]([Sb](=[O])([OH])[OH])cc1
inactive: [9] 89 % of control | [10] 101 % of control | [15] 101 % of control

CC(=O)Nc1nnc([N+](=O)[O-])s1
inactive: [2] 95 % of control | [4] 91 % of control | [5] 94 % of control

CC(=O)NC1C=CC(=O)O1 (configuration not stated)
inactive: endpoint: mean survival time, dose: 18.75 mg/kg/injection, schedule: Q01DX001 (ip), vehicle: saline 121 % of control | endpoint: mean survival time, dose: 37.5 mg/kg/injection, schedule: Q01DX001 (ip), vehicle: saline 119 % of control

Nc1ccc(CCCCNC(=O)c2ccccc2)cc1
inactive: [2] 93 % of control | [4] 96 % of control | [5] 90 % of control

Cc1ccc(-c2cc(-c3ccccc3)n(-c3ccccc3)n2)cc1
inactive: [2] 101 % of control | [4] 100 % of control | [5] 95 % of control

COC(/C=C\C(OC)OC)OC
inactive: endpoint: mean survival time, dose: 12.5 mg/kg/injection, schedule: Q01DX009 (ip), vehicle: saline 101 % of control | [8] 96 % of control

C=CC(C)(C)S(=O)[O-].[C-]#[O+].[C-]#[O+].[C-]#[O+].[Mn].[c-]1[c-][c-][cH-][c-]1
inactive: endpoint: mean survival time, dose: 25.0 mg/kg/injection, schedule: Q04DX002 (ip), vehicle: saline with Tween-80 93 % of control | [16] 86 % of control | [6] 93 % of control

O=C(O)c1ccccc1NCc1ccccc1
inactive: [2] 100 % of control | [4] 96 % of control | [5] 87 % of control

CCN(CC)CCCC(C)NC(c1ccc2c(c1)Sc1ccccc1O2)[P+](=O)O (configuration not stated)
inactive: [16] 97 % of control | endpoint: mean survival time, dose: 100.0 mg/kg/injection, schedule: Q01DX001 (ip), vehicle: saline sonified 95 % of control | [6] 90 % of control | endpoint: mean survival time, dose: 200.0 mg/kg/injection, schedule: Q01DX001 (ip), vehicle: saline sonified 91 % of control | [11] 97 % of control
